These results are taken from patent US8815858B2, “Heterocyclic flaviviridae virus inhibitors” (Gilead Sciences, Inc., priority 2010, dated 2014).

In this experiment the test system is HCV replicon (1B Replicon). In words: HCV replicon assay, inhibition of viral replication (luciferase). Conditions: Hepatitis C virus, 72 h; 10 uM compound; human hepatoma Huh-7 HCV replicon cells; 3 days incubation; luminescence; read-out: % inh at 10 uM (1B Replicon). The class given is cell-based. The procedure: The anti-HCV activity of the compounds of this invention was tested in a human hepatoma Huh-7 cell line harboring a HCV replicon. The assay comprised the following steps:
Serial dilution was performed in 100% DMSO in a 384-well plate. A solution containing a compound at 225-fold concentration of the starting final serial dilution concentration was prepared in 100% DMSO and 15 uL added to the pre-specified wells in column 3 or 13 of a polypropylene 384-well plate. The rest of the 384-well plate was filled with 10 uL 100% DMSO except for columns 23 and 24, where 10 uL of 500 uM a HCV protease inhibitor (ITMN-191) in 100% DMSO was added. The HCV protease inhibitor was used a control of 100% inhibition of HCV replication. The plate was then placed on a Biomek FX Workstation to start the serial dilution. The serial dilution was performed for ten cycles of 3-fold dilution from column 3 to 12 or from column 13 to 22.
To each well of a black polypropylene 384-well plate, 90 μL of cell media containing 1600 suspended Huh-7 HCV replicon cells was added with a Biotek uFlow Workstation. A volume of 0.4 μL of the compound solution was transferred from the serial dilution plate to the cell culture plate on a Biomek FX Workstation. The DMSO concentration in the final assay condition was 0.44%. The plates were incubated for 3 days at 37° C. with 5% CO2 and 85% humidity.
b) Assessment of inhibition of viral replication: The calcein-PBS solution in the 384-well cell culture plate was aspirated with a Biotek EL405 plate-washer. A volume of 20 μL of Dual-Glo luciferase buffer (Promega, Dual-Glo Luciferase Assay Reagent, cat. #E298B) was added to each well of the plate with a Biotek uFlow Workstation. The plate was incubated for 10 minutes at room temperature. A volume of 20 μL of a solution containing 1:100 mixture of Dual-Glo Stop & Glo substrate (Promega, Dual-Glo Luciferase Assay Reagent, cat. #E313B) and Dual-Glo Stop & Glo buffer (Promega, Dual-Glo Luciferase Assay Reagent, cat. #E314B) was then added to each well of the plate with a Biotek uFlow Workstation. The plate was incubated at room temperature for 10 minutes before the luminescence signal was measured with a Perkin Elmer Envision Plate Reader.
The percent cytotoxicity was determined by calcein AM conversion to fluorescent product. The average fluorescent signal from the DMSO control wells were defined as 100% nontoxic. The individual fluorescent signal from testing compound treated well was divided by the average signal from DMSO control wells and then multiplied by 100% to get the percent viability. The percent anti-HCV replication activity was determined by the luminescence signal from the testing well compared to DMSO controls wells. The background signal was determined by the average luminescence signal from the HCV protease inhibitor treated wells and was subtracted from the signal from the testing wells as well as the DMSO control wells. Following 3-fold serial dilutions, the EC50 and CC50 values were calculated by fitting % inhibition at each concentration to the following equation: % inhibition=100%/[(EC50/[I])^b+1]
% inhibition values at any specific concentration, for example 10 μM, can also be derived from the formula above.
(In general: In antiviral work, replicon cells carry a viral genome segment that copies itself.)

The structures appear in SMILES notation.

For `Fc1ccccc1-c1cc2ncn(Cc3cc(-c4ccc(C(F)(F)F)cc4C(F)(F)F)no3)cc-2n1`, the inhibition at 10 µM amounted to 99.6%.
For `Fc1ccccc1-c1cc2ncn(Cc3nnc(-c4ccc(C(F)(F)F)cc4C(F)(F)F)s3)cc-2n1`, the inhibition at 10 µM was determined as 100%.
For `COc1ccc(-c2nnc(Cn3cnc4cc(-c5ccccc5F)nc-4c3)s2)c(C(F)(F)F)c1`, the inhibition at 10 µM was found to be 100%.
With `Fc1ccccc1-c1cc2ccn(Cc3cc(-c4ccc(C(F)(F)F)cc4C(F)(F)F)no3)nc-2n1`, the inhibition at 10 µM was found to be 77%.
In the case of `Fc1ccccc1-c1cc2ncn(Cc3ccc(-c4ccc(C(F)(F)F)cc4C(F)(F)F)nn3)cc-2n1`, the inhibition at 10 µM stood at 100%.
For `COc1ccc(-c2nnc(Cn3ccc4cc(-c5ccccc5F)nc-4n3)s2)c(C(F)(F)F)c1`, the inhibition at 10 µM came to 98.1%.
Take `Fc1ccccc1-c1cc2ccn(Cc3ccc(-c4ccc(C(F)(F)F)cc4C(F)(F)F)nn3)nc-2n1`: the inhibition at 10 µM is 97.4%.
As to `COc1ccc(-c2nnc(Cn3cnc4c(Br)c(-c5ccccc5F)nc-4c3)s2)c(C(F)(F)F)c1`, the inhibition at 10 µM is 100%.
Take `COc1ccc(-c2nnc(Cn3cnc4c(C#Cc5cncnc5)c(-c5ccccc5F)nc-4c3)s2)c(C(F)(F)F)c1`: the inhibition at 10 µM was 97.8%.
Next, `COc1ccc(-c2nnc(Cn3cnc4c(Cl)c(-c5ccccc5F)nc-4c3)s2)c(C(F)(F)F)c1`: 100%; `COc1ccc(-c2nnc(Cn3cnc4c(C(N)=O)c(-c5ccccc5F)nc-4c3)s2)c(C(F)(F)F)c1`: 36.6%.
On to `COc1ccc(-c2nnc(Cn3cnc4c(C#N)c(-c5ccccc5F)nc-4c3)s2)c(C(F)(F)F)c1`, for which the inhibition at 10 µM turned out to be 99.9%.
